Active and inactive are the calls of the source. The rule behind the calls is not given here. Residues, ends and D or L forms follow the SMILES beside them. *: point of attachment. X1 = COc1ccc(CN2C(=O)C(=O)c3cc(-c4ccc(OC(=O)CCC(=O)*)cc4)ccc32)cc1
Legend:
[1] = Cytotoxicity against HUVEC cells assessed as reduction in cell viability incubated for 48 hrs by MTT assay; assay type: toxicity, cell-based; settings: human
[2] = test system: HCT-116; assay: Antitumor activity against human HCT-116 cells xenografted in SPF-grade Balb/c nude mouse model assessed as reduction in tumor size at 33.86 to 45.17 mg/kg, ip administered daily for 11 days by photographic analysis; assay type: functional, organism-based; settings: dose 33.86-45.17 mg/kg, time 11.0 day
[3] = test system: HCT-116; assay: Inhibition of wound closure in human HCT-116 cells at 0.4 uM measured after 48 hrs by wound healing assay; assay type: functional, cell-based
[4] = test system: HCT-116; assay: Antitumor activity against human HCT-116 cells xenografted in SPF-grade Balb/c nude mouse model assessed as tumor growth inhibition at 33.86 mg/kg, ip administered daily for 11 days relative to control; assay type: functional; settings: HCT-116, 264 h, time 11 day, read-out: TGI
[5] = test system: HCT-116; assay: Induction of apoptosis in human HCT-116 cells assessed as increase in caspase-3 activation level at 0.8 uM measured after 24 hrs by Western blot analysis; assay type: functional, cell-based
[6] = test system: HCT-116; assay: Inhibition of beta-tubulin expression in human HCT-116 cells at 0.8 uM incubated for 24 hrs by Western blot analysis; assay type: functional, cell-based
[7] = test system: HCT-116; assay: Cell cycle arrest in human HCT-116 cells assessed as accumulation of cells at G2/M phase at 0.4 to 0.8 uM incubated for 24 hrs by PI staining based flow cytometric analysis; assay type: functional; settings: dose 0.4-0.8 µM
[8] = test system: HCT-116; assay: Induction of apoptosis in human HCT-116 cells assessed as morphological changes at 0.4 to 0.8 microM measured after 24 hrs by microscopic analysis; assay type: functional, cell-based; settings: dose 0.4-0.8 µM
[9] = Toxicity in SPF-grade Balb/c nude mouse xenografted with human HCT-116 cells assessed as average body weight at 33.86 to 45.17 mg/kg, ip measured after 10 days; assay type: organism-based; settings: in vivo, 240 h, dose 33.86-45.17 mg/kg, time 10 day
[10] = test system: HCT-116; assay: Cell cycle arrest in human HCT-116 cells assessed as decrease in CDK1 expression at 0.8 uM incubated for 24 hrs by Western blot analysis; assay type: functional, cell-based
[11] = test system: HCT-116; assay: Antitumor activity against human HCT-116 cells xenografted in SPF-grade Balb/c nude mouse model assessed as inhibition of tumor cell growth at 33.86 to 45.17 mg/kg, ip administered daily for 11 days by H and E staining based analysis; assay type: functional, organism-based; settings: dose 33.86-45.17 mg/kg, time 11.0 day
[12] = test system: HCT-116; assay: Induction of apoptosis in human HCT-116 cells assessed as morphological changes at 0.4 to 0.8 microM measured after 48 hrs by microscopic analysis; assay type: functional, cell-based; settings: dose 0.4-0.8 µM
[13] = test system: HCT-116; assay: Cell cycle arrest in human HCT-116 cells assessed as increase in cyclin B1 expression at 0.8 uM incubated for 24 hrs by Western blot analysis; assay type: functional, cell-based
[14] = test system: HCT-116; assay: Cell cycle arrest in human HCT-116 cells assessed as increase in p21 expression at 0.8 uM incubated for 24 hrs by Western blot analysis; assay type: functional, cell-based
[15] = test system: HCT-116; assay: Induction of apoptosis in human HCT-116 cells at 0.4 to 0.8 uM incubated for 24 hrs by Annexin V-FITC/PI staining based flow cytometric analysis; assay type: functional, cell-based; settings: dose 0.4-0.8 µM
[16] = test system: HCT-116; assay: Antiproliferative activity against human HCT-116 cells assessed as reduction in cell viability incubated for 48 hrs by MTT assay; assay type: functional, cell-based; settings: HCT-116, 48 h
[17] = test system: HCT-116; assay: Induction of apoptosis in human HCT-116 cells assessed as downregulation of Bcl-2 protein at 0.8 uM measured after 24 hrs by Western blot analysis; assay type: functional, cell-based
[18] = test system: HCT-116; assay: Induction of apoptosis in human HCT-116 cells assessed as cell fragmentation at 0.4 to 0.8 microM measured after 24 hrs by microscopic analysis; assay type: functional, cell-based; settings: dose 0.4-0.8 µM
[19] = test system: HCT-116; assay: Induction of apoptosis in human HCT-116 cells assessed as upregulation of Bax protein at 0.8 uM measured after 24 hrs by Western blot analysis; assay type: functional, cell-based
[20] = test system: HCT-116; assay: Cell cycle arrest in human HCT-116 cells assessed as increase in p53 expression at 0.8 uM incubated for 24 hrs by Western blot analysis; assay type: functional, cell-based
[21] = test system: HCT-116; assay: Inhibition of colony formation in human HCT-116 cells at 0.4 to 0.8 uM measured after 10 days by crystal violet staining based inverted microscopic analysis; assay type: functional, cell-based; settings: dose 0.4-0.8 µM, time 10.0 day
[22] = test system: HCT-116; assay: Induction of apoptosis in human HCT-116 cells assessed as increase in PARP activation level at 0.8 uM measured after 24 hrs by Western blot analysis; assay type: functional, cell-based
[23] = test system: MGC-803; assay: Antiproliferative activity against human MGC-803 cells assessed as reduction in cell viability incubated for 48 hrs by MTT assay; assay type: functional, cell-based; settings: MGC-803, 48 h
[24] = test system: HCT-116; assay: Cell cycle arrest in human HCT-116 cells assessed as increase in p53 expression at 0.2 to 0.8 uM incubated for 24 hrs by Western blot analysis; assay type: functional, cell-based; settings: dose 0.2-0.8 µM
[25] = test system: HCT-116; assay: Antitumor activity against human HCT-116 cells xenografted in SPF-grade Balb/c nude mouse model assessed as tumor growth inhibition at 45.17 mg/kg, ip administered daily for 11 days relative to control; assay type: functional; settings: HCT-116, 264 h, time 11 day, read-out: TGI
[26] = Cytotoxicity against HK-2 cells assessed as reduction in cell viability incubated for 48 hrs by MTT assay; assay type: toxicity, cell-based; settings: human
[27] = test system: 786-0; assay: Antiproliferative activity against human 786-0 cells assessed as reduction in cell viability incubated for 48 hrs by MTT assay; assay type: functional, cell-based; settings: 786-0, 48 h
[28] = Toxicity in SPF-grade Balb/c nude mouse xenografted with human HCT-116 cells assessed as average body weight at 12 mg/kg, ip measured after 10 days; assay type: organism-based; settings: in vivo, 240 h, time 10 day
[29] = test system: HCT-116; assay: Induction of apoptosis in human HCT-116 cells assessed as increase in caspase-3 cleavage level at 0.2 to 0.8 uM incubated for 24 hrs by Western blot analysis; assay type: functional, cell-based; settings: dose 0.2-0.8 µM
[30] = test system: HepG2; assay: Antiproliferative activity against human HepG2 cells assessed as reduction in cell viability incubated for 48 hrs by MTT assay; assay type: functional, cell-based; settings: HepG2, 48 h
[31] = test system: HCT-116; assay: Induction of apoptosis in human HCT-116 cells assessed as increase in PARP cleavage at 0.2 to 0.8 uM incubated for 24 hrs by Western blot analysis; assay type: functional, cell-based; settings: dose 0.2-0.8 µM
[32] = test system: HCC827; assay: Antiproliferative activity against human HCC827 cells assessed as reduction in cell viability incubated for 48 hrs by MTT assay; assay type: functional, cell-based; settings: HCC827, 48 h
[33] = test system: HCT-116; assay: Cell cycle arrest in human HCT-116 cells assessed as increase in p21 expression at 0.2 to 0.8 uM incubated for 24 hrs by Western blot analysis; assay type: functional, cell-based; settings: dose 0.2-0.8 µM
[34] = test system: HCT-116; assay: Antitumor activity against human HCT-116 cells xenografted in SPF-grade Balb/c nude mouse model assessed as reduction in tumor size at 12 mg/kg, ip administered daily for 11 days by photographic analysis; assay type: functional, organism-based; settings: time 11.0 day
[35] = test system: K562; assay: Antiproliferative activity against human K562 cells assessed as reduction in cell viability incubated for 48 hrs by MTT assay; assay type: functional, cell-based; settings: K562, 48 h
[36] = test system: HCT-116; assay: Antitumor activity against human HCT-116 cells xenografted in SPF-grade Balb/c nude mouse model assessed as tumor growth inhibition at 12 mg/kg, ip administered daily for 11 days relative to control; assay type: functional; settings: HCT-116, 264 h, time 11 day, read-out: TGI
[37] = test system: HCT-116; assay: Antitumor activity against human HCT-116 cells xenografted in SPF-grade Balb/c nude mouse model assessed as inhibition of tumor cell growth at 12 mg/kg, ip administered daily for 11 days by H and E staining based analysis; assay type: functional, organism-based; settings: time 11.0 day
[38] = test system: HCT-116; assay: Cell cycle arrest in human HCT-116 cells assessed as accumulation of cells at G2/M phase by measuring increase in cyclin B1 expression at 0.2 to 0.8 uM incubated for 24 hrs by Western blot analysis; assay type: functional, cell-based; settings: dose 0.2-0.8 µM
[39] = test system: HCT-116; assay: Induction of apoptosis in human HCT-116 cells assessed as upregulation of Bax protein at 0.2 to 0.8 uM measured within 24 hrs by Western blot analysis; assay type: functional, cell-based; settings: dose 0.2-0.8 µM
[40] = test system: HCT-116; assay: Induction of apoptosis in human HCT-116 cells assessed as downregulation of Bcl-2 protein at 0.2 to 0.8 uM measured within 24 hrs by Western blot analysis; assay type: functional, cell-based; settings: dose 0.2-0.8 µM
[41] = test system: HCT-116; assay: Inhibition of beta-tubulin expression in human HCT-116 cells at 0.2 to 0.8 uM incubated for 24 hrs by Western blot analysis; assay type: functional, cell-based; settings: dose 0.2-0.8 µM
[42] = test system: HCT-116; assay: Cell cycle arrest in human HCT-116 cells assessed as accumulation of cells at G2/M phase by measuring decrease in CDK1 expression at 0.2 to 0.8 uM incubated for 24 hrs by Western blot analysis; assay type: functional, cell-based; settings: dose 0.2-0.8 µM

COc1ccc(CN2C(=O)C(=O)c3cc(-c4ccc(OC(=O)CCC(=O)NCCCC[C@H](NC(C)=O)C(=O)N5CCC[C@H]5C(=O)N[C@@H](CO)C(=O)N[C@@H](CO)C(=O)N5CCC[C@H]5C(=O)N5CCC[C@H]5C(=O)N[C@@H](CCC(=O)O)C(=O)N[C@@H](CCC(=O)O)C(N)=O)cc4)ccc32)cc1 (Ac-K(X1)PSSPPEE-NH2)
IC50 at 48 h [1]: 43 µM | Activity [2]: Active | inhibition [3]: Active | inhibition in vivo at 33.86 mg/kg [4]: 47% | Activity [5]: Active | inhibition [6]: Active | Activity [7]: Active | Activity [8]: Active | Activity [9]: ~ 10 g | Activity [10]: Active | Activity [11]: Active | Activity [12]: Active; More Evident Apoptotic State Observed | Activity [13]: Active | Activity [14]: Active | Activity [15]: Active | IC50 [16]: 0.23 µM | Activity [17]: Active | Activity [18]: Active | Activity [19]: Active | Activity [20]: Active | inhibition [21]: Active | Activity [22]: Active

COc1ccc(CN2C(=O)C(=O)c3cc(-c4ccc(O)cc4)ccc32)cc1
IC50 [23]: 20.6 µM | IC50 at 48 h [1]: 18.1 µM | inhibition [3]: Active | Activity [24]: Active; Activation Of P53-Medisted Signaling Observed | inhibition in vivo at 45.17 mg/kg [25]: 61% | IC50 at 48 h [26]: 13.9 µM | Activity [5]: Active | IC50 [27]: 26.6 µM | Activity [28]: ~ 10 g | inhibition [6]: Active | Activity [7]: Active | Activity [8]: Active | Activity [29]: Active | IC50 [30]: > 100 µM | Activity [10]: Active | Activity [12]: Active; More Evident Apoptotic State Observed | Activity [13]: Active | Activity [31]: Active | Activity [14]: Active | IC50 [32]: 10.1 µM | Activity [33]: Active; Activation Of P53-Medisted Signaling Observed | Activity [15]: Active | IC50 [16]: 0.33 µM | Activity [34]: Active | Activity [17]: Active | IC50 [35]: 0.8 µM | inhibition in vivo at 12 mg/kg [36]: 49% | Activity [18]: Active | Activity [19]: Active | Activity [37]: Active | Activity [38]: Active | Activity [20]: Active | Activity [39]: Active; Activation Of Intrinsic Apoptotic Pathway Observed | inhibition [21]: Active | Activity [40]: Active; Activation Of Intrinsic Apoptotic Pathway Observed | inhibition [41]: Active | Activity [22]: Active | Activity [42]: Active

COc1ccc(CN2C(=O)C(=O)c3cc(-c4ccc(CBr)cc4)ccc32)cc1
IC50 [23]: 27 µM | IC50 at 48 h [1]: 16 µM | IC50 at 48 h [26]: 1.99 µM | IC50 [27]: 33.3 µM | IC50 [30]: > 100 µM | IC50 [32]: 24.2 µM | IC50 [16]: 0.349 µM | IC50 [35]: 0.77 µM
